Results reported in patent US12521440B2, “Degradation of bruton's tyrosine kinase (BTK) by conjugation of BTK inhibitors with E3 ligase ligand and methods of use” (BeOne Medicines I GmbH, priority 2021, dated 2026).

Experiments:
BTK = target: T1, BTK (Homo sapiens, UniProt Q06187); assay: BTK degradation in TMD-8 cells (HTRF assay); type: cell-based; conditions: 6 h treatment, HTRF BTK degradation IC50 (DC50)
T1 construct: endogenous in cells; host or cells: TMD-8 cells
Method: TMD-8 cells were treated with compounds diluted in 0.2% DMSO, dilution was done according to the following protocol: (1) making 500×stock solution in DMSO from 1 mM by 6-fold dilution, total 8 doses were included; (2) making 2×solution in cell culture medium by transferring 0.5 μl 500×stock solution into 125 μl medium; (3) adding 15 μl of 2×solution to cells for incubation of 6 h.
After 6 h treatment, 10 μl 4×lysis buffer was added to each well; the plate was sealed and incubated for 30 min at room temperature on a plate shaker; Once the cells was lysed, 16 μL of cell lysate were transferred to a PE 384-well HTRF detection plate; 4 μL of pre-mixed HTRF antibodies were added to each well; the plate was covered with a plate sealer, and then spinned at 1000 rpm for 1 min, then incubated overnight at room temperature; the results were read on BMG PheraStar with HTRF protocol (337 nm-665 nm-620 nm).
(§1) The IC50 (DC50) value of a compound can be obtained by fitting the following equation Y=Bottom+(TOP−Bottom)/(1+((IC50/X)^hillslope)) wherein, X and Y are known values, and IC50, Hillslope, Top and Bottom are the parameters obtained by fitting with software. Y is the inhibition percentage (calculated from the equation), X is the concentration of the compound; IC50 is the concentration of the compound when the 50% inhibition is reached. The smaller the IC50 value is, the stronger the inhibitory ability of the compound is. Vice versa, the higher the IC50 value is, the weaker the ability the inhibitory ability of the compound is; Hillslope represents the slope of the fitted curve, generally around 1*; Bottom represents the minimum value of the curve obtained by data fitting, which is generally 0%±20%; Top represents the maximum value of the curve obtained by data fitting, which is generally 100%±20%. The experimental data were fitted by calculating and analyzing with Dotmatics data analysis software. HEK-293 Cell Treatment

HEK-293 cells = assay: HEK-293 cytotoxicity detection (CellTiter-Glo); type: cell-based; conditions: Homo sapiens, 72 h incubation, read-out: HEK293
From the text: as §1
HEK-293 cells were treated with compounds diluted in 0.2% DMSO, dilution was done according to the following protocol: (1) making 500×stock solution in DMSO from 5 mM by 4-fold dilution, total 8 doses were included; (2) making 2×solution in cell culture medium by transferring 0.5 ul 500×stock solution into 125 ul medium; (3) adding 50 ul of 2×solution to cells for incubation of 72 h.
25 μl of the CellTiter-Glo® Reagent [(Promega)—Cat No. G7572] was added to each well in the 96-well plate. The contents were mixed for 2 minutes on an orbital shaker to induce cell lysis. The plate was then allowed to incubate at room temperature for 10 minutes to stabilize luminescent signal. Luminescence was recorded on BMG PheraStar with luminescence protocol.
as §1, with “IC50” for “IC50 (DC50)”, “Wherein,” for “wherein,”, “software.” for “software. HEK-293 Cell Treatment”

T1 sequence (Q06187 whole entry): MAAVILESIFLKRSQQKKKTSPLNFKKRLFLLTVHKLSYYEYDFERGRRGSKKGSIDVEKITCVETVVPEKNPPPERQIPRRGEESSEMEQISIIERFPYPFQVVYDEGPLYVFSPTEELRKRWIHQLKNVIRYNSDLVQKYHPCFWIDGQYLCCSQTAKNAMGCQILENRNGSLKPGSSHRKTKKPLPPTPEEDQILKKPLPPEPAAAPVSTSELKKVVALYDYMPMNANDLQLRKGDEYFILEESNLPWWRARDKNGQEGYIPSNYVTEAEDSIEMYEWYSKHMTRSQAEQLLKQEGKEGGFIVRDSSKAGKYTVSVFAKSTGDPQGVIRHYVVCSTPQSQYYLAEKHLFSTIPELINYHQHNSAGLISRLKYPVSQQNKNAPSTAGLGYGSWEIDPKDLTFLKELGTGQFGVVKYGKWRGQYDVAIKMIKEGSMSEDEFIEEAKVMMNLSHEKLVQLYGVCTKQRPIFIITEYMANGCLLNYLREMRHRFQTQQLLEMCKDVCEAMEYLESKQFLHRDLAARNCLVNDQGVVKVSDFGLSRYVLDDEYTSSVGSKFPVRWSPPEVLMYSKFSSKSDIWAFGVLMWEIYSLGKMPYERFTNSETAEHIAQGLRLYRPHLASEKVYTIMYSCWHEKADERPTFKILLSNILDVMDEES

SMILES	DC50 (BTK) [nM]	IC50 (HEK-293 cells) [nM]
Cc1cc(-c2cc(Nc3ccc(N4CCN(CC5CCN(c6ccc(N7CCC(=O)NC7=O)cc6)CC5)CC4)nc3)ncn2)ccc1[C@@H](C)NC(=O)c1nc(C(C)(C)C)no1 [Example 13, (R)-3-(tert-butyl)-N-(1-(4-(6-((6-(4-((1-(4-(2,4-dioxotetrahydropyrimidin-1(2H)-yl)phenyl)piperidin-4-yl)methyl)piperazin-1-yl)pyridin-3-yl)amino)pyrimidin-4-yl)-2-methylphenyl)ethyl)-1,2,4-oxadiazole-5-carboxamide]	32.7	> 10000
Cc1cc(-c2cc(Nc3ncc(N4CCN(CC5CCN(c6ccc(N7CCC(=O)NC7=O)cc6)CC5)CC4)cn3)ncn2)ccc1[C@@H](C)NC(=O)c1nc(C(C)(C)C)no1 [Example 14, (R)-3-(tert-butyl)-N-(1-(4-(6-((5-(4-((1-(4-(2,4-dioxotetrahydropyrimidin-1(2H)-yl)phenyl)piperidin-4-yl)methyl)piperazin-1-yl)pyrimidin-2-yl)amino)pyrimidin-4-yl)-2-methylphenyl)ethyl)-1,2,4-oxadiazole-5-carboxamide]	3.21	> 10000
Cc1cc(-c2cc(Nc3ccc(N4CCN(CC5CCN(c6ccc(N7CCC(=O)NC7=O)c(F)c6)CC5)CC4)cn3)ncn2)ccc1[C@@H](C)NC(=O)c1nc(C(C)(C)C)no1 [Example 17, (R)-3-(tert-butyl)-N-(1-(4-(6-((5-(4-((1-(4-(2,4-dioxotetrahydropyrimidin-1(2H)-yl)-3-fluorophenyl)piperidin-4-yl)methyl)piperazin-1-yl)pyridin-2-yl)amino)pyrimidin-4-yl)-2-methylphenyl)ethyl)-1,2,4-oxadiazole-5-carboxamide]	2.2	> 10000
Cc1cc(-c2cc(Nc3ccc(N4CCN(CC5CN(c6ccc(C7CCC(=O)NC7=O)cc6)C5)CC4)cn3)ncn2)ccc1[C@@H](C)NC(=O)c1nc(C(C)(C)C)no1 (stereo partly drawn) [Example 19, 3-(tert-butyl)-N-((1R)-1-(4-(6-((5-(4-((1-(4-(2,6-dioxopiperidin-3-yl)phenyl)azetidin-3-yl)methyl)piperazin-1-yl)pyridin-2-yl)amino)pyrimidin-4-yl)-2-methylphenyl)ethyl)-1,2,4-oxadiazole-5-carboxamide]	2.51	> 10000
Cc1cc(-c2cc(Nc3ccc(N4CCC(CN5CCN(c6ccc(N7CCC(=O)NC7=O)cc6)CC5)CC4)cn3)ncn2)ccc1[C@@H](C)NC(=O)c1nc(C(C)(C)C)no1 [Example 21, (R)-3-(tert-butyl)-N-(1-(4-(6-((5-(4-((4-(4-(2,4-dioxotetrahydropyrimidin-1(2H)-yl)phenyl)piperazin-1-yl)methyl)piperidin-1-yl)pyridin-2-yl)amino)pyrimidin-4-yl)-2-methylphenyl)ethyl)-1,2,4-oxadiazole-5-carboxamide]	2.11	> 10000
Cc1cc(-c2cc(Nc3ccc(N4CCN(C[C@@H]5CCN(c6ccc(N7CCC(=O)NC7=O)cc6)C5)CC4)cn3)ncn2)ccc1[C@@H](C)NC(=O)c1nc(C(C)(C)C)no1 [Example 24, 3-(tert-butyl)-N—((R)-1-(4-(6-((5-(4-(((S)-1-(4-(2,4-dioxotetrahydropyrimidin-1(2H)-yl)phenyl)pyrrolidin-3-yl)methyl)piperazin-1-yl)pyridin-2-yl)amino)pyrimidin-4-yl)-2-methylphenyl)ethyl)-1,2,4-oxadiazole-5-carboxamide]	5.63	> 10000

Compounds with a lower DC50 (BTK), results first:

DC50 (BTK) [nM]	SMILES	IC50 (HEK-293 cells) [nM]
0.638	Cc1cc(-c2cc(Nc3ccc(N4CCN(CC5CCN(c6ccc(N7CCC(=O)NC7=O)cc6)CC5)CC4)nn3)ncn2)ccc1[C@@H](C)NC(=O)c1nc(C(C)(C)C)no1 [Example 15]	> 10000
1.29	Cc1cc(-c2cc(Nc3ccc(N4CCN(CC5CCN(c6ccc(N7CCC(=O)NC7=O)cc6)CC5)CC4)cn3)ncn2)ccc1[C@@H](C)NC(=O)c1nc(C(C)(C)C)no1 [Example 16, (R)-3-(tert-butyl)-N-(1-(4-(6-((5-(4-((1-(4-(2,4-dioxotetrahydropyrimidin-1(2H)-yl)phenyl)piperidin-4-yl)methyl)piperazin-1-yl)pyridin-2-yl)amino)pyrimidin-4-yl)-2-methylphenyl)ethyl)-1,2,4oxadiazole-5-carboxamide]	> 10000
1.15	Cc1cc(-c2cc(Nc3ccc(N4CCN(CC5CCN(c6ccc(N7CCC(=O)NC7=O)c(C)c6)CC5)CC4)cn3)ncn2)ccc1[C@@H](C)NC(=O)c1nc(C(C)(C)C)no1 [Example 18, (R)-3-(tert-butyl)-N-(1-(4-(6-((5-(4-((1-(4-(2,4-dioxotetrahydropyrimidin-1(2H)-yl)-3-methylphenyl)piperidin-4-yl)methyl)piperazin-1-yl)pyridin-2-yl)amino)pyrimidin-4-yl)-2-methylphenyl)ethyl)-1,2,4-oxadiazole-5-carboxamide]	> 10000
1.23	Cc1cc(-c2cc(Nc3ccc(N4CC(CN5CCN(c6ccc(N7CCC(=O)NC7=O)cc6)CC5)C4)cn3)ncn2)ccc1[C@@H](C)NC(=O)c1nc(C(C)(C)C)no1 [Example 20, (R)-3-(tert-butyl)-N-(1-(4-(6-((5-(3-((4-(4-(2,4-dioxotetrahydropyrimidin-1(2H)-yl)phenyl)piperazin-1-yl)methyl)azetidin-1-yl)pyridin-2-yl)amino)pyrimidin-4-yl)-2-methylphenyl)ethyl)-1,2,4-oxadiazole-5-carboxamide]	> 10000
1.58	Cc1cc(-c2cc(Nc3ccc(N4CCN(CC5CN(c6ccc(N7CCC(=O)NC7=O)cc6)C5)CC4)cn3)ncn2)ccc1[C@@H](C)NC(=O)c1nc(C(C)(C)C)no1 [Example 22, (R)-3-(tert-butyl)-N-(1-(4-(6-((5-(4-((1-(4-(2,4-dioxotetrahydropyrimidin-1(2H)-yl)phenyl)azetidin-3-yl)methyl)piperazin-1-yl)pyridin-2-yl)amino)pyrimidin-4-yl)-2-methylphenyl)ethyl)-1,2,4-oxadiazole-5-carboxamide]	> 10000
1.14	Cc1cc(-c2cc(Nc3ccc(C4CN(CC5CCN(c6ccc(N7CCC(=O)NC7=O)cc6)CC5)C4)cn3)ncn2)ccc1[C@@H](C)NC(=O)c1nc(C(C)(C)C)no1 [Example 23, (R)-3-(tert-butyl)-N-(1-(4-(6-((5-(1-((1-(4-(2,4-dioxotetrahydropyrimidin-1(2H)-yl)phenyl)piperidin-4-yl)methyl)azetidin-3-yl)pyridin-2-yl)amino)pyrimidin-4-yl)-2-methylphenyl)ethyl)-1,2,4-oxadiazole-5-carboxamide]	2900
0.935	Cc1cc(-c2cc(Nc3ccc(N4CCN(C(=O)C5CN(c6ccc(N7CCC(=O)NC7=O)cc6)C5)CC4)cn3)ncn2)ccc1[C@@H](C)NC(=O)c1nc(C(C)(C)C)no1 [Example 25, (R)-3-(tert-butyl)-N-(1-(4-(6-((5-(4-(1-(4-(2,4-dioxotetrahydropyrimidin-1(2H)-yl)phenyl)azetidine-3-carbonyl)piperazin-1-yl)pyridin-2-yl)amino)pyrimidin-4-yl)-2-methylphenyl)ethyl)-1,2,4-oxadiazole-5-carboxamide]	> 10000
